Assay results from ChEMBL document CHEMBL1201862, “PubChem BioAssay data set” (2004).
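How tested: cells in 96-well plates exposed to compound for 48 hours at five concentrations. GI50: concentration for 50% inhibition of growth.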 Active and inactive are the calls of the source. Cut-off read from the data, not from the text of the source: active = GI50 up to about 1.1 µM and inactive = higher.

Experiments:
Assay in all cases: growth of human tumour cells (NCI), 48 h
[1] = system: ACHN
[2] = system: BT-549
[3] = system: CCRF-CEM
[4] = system: COLO 205
[5] = system: HCC 2998
[6] = system: Hs-578T
[7] = system: IGROV-1
[8] = system: MCF7
[9] = system: MDA-MB-231
[10] = system: MDA-MB-435
[11] = system: NCI-H23
[12] = system: NCI/ADR-RES
[13] = system: PC-3
[14] = system: SK-MEL-2
[15] = system: SK-MEL-5
[16] = system: T47D
[17] = system: UACC-257
[18] = system: UO-31
[19] = system: MDA-N

Measured: GI50

COc1ccc2c(c1)C(=O)CC(C(N)=O)C2 (configuration not stated)
inactive: [1] > 100 µM | [2] > 100 µM | [3] > 100 µM | [4] > 100 µM | [5] > 100 µM | [6] > 100 µM | [7] > 100 µM | [8] > 100 µM | [9] > 100 µM | [10] > 100 µM | [11] > 100 µM | [12] > 100 µM | [13] > 100 µM | [14] > 100 µM | [15] > 100 µM | [16] > 100 µM | [17] > 100 µM | [18] > 100 µM

CCC(C)[C@H]1C(=O)N=C(N)N1C(=O)OCc1ccccc1 (some centres not stated)
inactive: [1] > 100 µM | [2] > 100 µM | [4] > 100 µM | [5] > 100 µM | [7] > 100 µM | [8] > 100 µM | [9] > 100 µM | [10] > 100 µM | [19] > 100 µM | [11] > 100 µM | [12] > 100 µM | [13] > 100 µM | [14] > 100 µM | [15] > 100 µM | [17] > 100 µM | [18] 78 µM

Cc1nc(C)c(C(=O)NNC(=O)C[N+](C)(C)C)cc1C(=O)NNC(=O)C[N+](C)(C)C
inactive: [1] > 100 µM | [2] > 100 µM | [4] > 100 µM | [5] > 100 µM | [7] > 100 µM | [8] > 100 µM | [9] > 100 µM | [10] > 100 µM | [19] > 100 µM | [11] > 100 µM | [12] > 100 µM | [14] > 100 µM | [15] > 100 µM | [16] 74.1 µM | [17] > 100 µM | [18] > 100 µM

CCC(CC)C(=O)OC[n+]1ccc(-c2c(COC(=O)NC(C)C)c(COC(=O)NC(C)C)c3n2CCC3)cc1
inactive: [2] > 100 µM | [3] > 100 µM | [4] > 100 µM | [5] > 100 µM | [6] > 100 µM | [7] > 100 µM | [8] > 100 µM | [9] > 100 µM | [19] > 100 µM | [11] > 100 µM | [12] > 100 µM | [13] > 100 µM | [15] > 100 µM | [17] > 100 µM | [18] > 100 µM

COc1ccc(C(C2=C(O)COC2=O)c2cc3c(cc2O)OCO3)cc1OC (configuration not stated)
inactive: [1] > 100 µM | [2] > 100 µM | [3] > 100 µM | [4] > 100 µM | [5] > 100 µM | [6] > 100 µM | [7] > 100 µM | [8] > 100 µM | [9] > 100 µM | [10] > 100 µM | [19] > 100 µM | [12] > 100 µM | [13] > 100 µM | [14] > 100 µM | [15] > 100 µM | [17] > 100 µM | [18] > 100 µM
